“Also recorded” adds a separate entry of the source. *: point of attachment. Myristoyl = CCCCCCCCCCCCCC(=O)*
Tests used:
[1] = test system: bleomycin induced ALI mouse model; test: Lung compliance (flexiVent) in bleomycin ALI model; format: in vivo; conditions: for lung compliance, PKC-ζi instilled post injury: measured at one week; for lung compliance: week 1 post injury, PKCζi given with bleomycin and every 72 hours
Description: (§1) (4) PKC-ζi partially preserves lung compliance. Briefly, trachea was surgically exposed and tracheal cannula (18 gauge, Angiocath, Becton Dickinson, Sandy, Utah, USA) placed and secure in the lumen. The mice were paralyzed using intraperitoneal rocuronium (1 mg/Kg) to prevent spontaneous breathing and mechanically ventilated on a computer controlled respirator (flexiVent, SCIREQ Inc., Montreal, Canada). The ventilator was set up to deliver tidal volume 6 ml/kg for 10 minutes; respiratory rate of 150 breaths/min; 3 cmH2O positive end expiratory pressure (PEEP). The compliance was determined using the maneuver Pressure-volume ramp volume regulated (PVrV) to calculate the Quasi-static compliance. […] Since lung compliance is the product of an intact epithelial barrier and surfactant production, and PKCζ have been reported to be involved in surfactant production (Gobran et al., (1998). “PKCζ isoforms and other signaling proteins involved in surfactant secretion in developing rat type II cells.” Am J Physiol 274(6 Pt 1): L901-907), the inventors decided to examine by Western blot analysis total amount of SPC in BALF. […] Therefore, our results are likely due to preservation of the alveolar epithelial barrier.
(7) Treatment of mice with PKC-ζi after initial injury continues to be effective in preserving lung compliance. Since the majority of clinical scenarios involve the treatment of patients with established ALI, we set out to examine the effect of PKC-ζi post injury by instilling 6 and 24 hours after bleomycin instillation. Lung compliance was measured at one week.
(§2) Animal protocols were approved by the Institutional Animal Care and Use Committee at the University of Iowa. C57BL/6 mice (Jackson Laboratories, Bar Harbor, Me.) were anesthetized followed by intratracheal instillation of: (A) Control (Ctrl): 1 μl of DMSO (Sigma, St. Louis, Mo.) plus 49 μl of PBS; (B) Bleomycin (Bleo): 1 μl of DMSO plus 49 μl of bleomycin (APP pharmaceuticals, LLC Schaumburg, Ill.) dissolved in PBS (4 U/kg); (C) Bleomycin/PKCζi (Bleo/PKCζi): 1 μg of PKCζi (Calbiochem EMD Biosciences, San Diego, Calif.) solubilized in 1 μl of DMSO plus 49 μl of bleomycin (4 U/Kg) dissolved in PBS (Calbiochem EMD Biosciences, San Diego, Calif.). After this treatment, all mice were instilled (50 μl) every 72 hours with 1 μl of DMSO plus 49 μl of PBS in the Ctrl and Bleo group or with 1 μg of PKCζi dissolved in 1 μl of DMSO plus 49 μl of PBS in the Bleo/PKCζi group for the duration of the experiment. Mice were treated for up to 6 weeks (FIG. 1A). All conditions had between 4 to 6 animals.
Mice were anesthetized, paralyzed and lung function assessed with the flexiVent Legacy. (SCIREQ Inc., Montreal, Canada).

[2] = test system: surfactant protein C (SPC); test: Surfactant protein C (SPC) by Western blot in bleomycin ALI model; format: in vivo, mouse
Description: as §1
Animal protocols were approved by the Institutional Animal Care and Use Committee at the University of Iowa. […]

[3] = test system: bleomycin induced ALI mouse model; test: Lung collagen deposition (hydroxyproline assay, Masson's trichrome) in bleomycin ALI model; format: in vivo; conditions: for lung fibrosis / lung injury resolution, biochemical and histological evidence: active TGF β, hydroxyproline, Masson staining
Description: as §2
The collagen content in the lung homogenates was determined with a hydroxyproline assay, as described previously (26). In addition, lung collagen deposition was examined in lung sections stained with Masson's trichrome.

[4] = test system: bleomycin induced ALI mouse model; test: In vivo lung μCT scan in bleomycin ALI model; conditions: week 6
Description: as §2
High resolution scanning coupled to a computer controlled respirator to reduce ventilation motion artifacts was performed as described previously (27).

Which results are given for “N-Myristoyl-Ser-Ile-Tyr-Arg-Arg-Gly-Ala-Arg-Arg-Trp-Arg-Lys-Leu-OH (Myristoyl-SIYRRGARRWRKL-OH; SMILES CCCCCCCCCCCCCC(=O)N[C@@H](CO)C(=O)N[C@H](C(=O)N[C@@H](Cc1ccc(O)cc1)C(=O)N[C@@H](CCCNC(=N)N)C(=O)N[C@@H](CCCNC(=N)N)C(=O)NCC(=O)N[C@@H](C)C(=O)N[C@@H](CCCNC(=N)N)C(=O)N[C@@H](CCCNC(=N)N)C(=O)N[C@@H](Cc1c[nH]c2ccccc12)C(=O)N[C@@H](CCCNC(=N)N)C(=O)N[C@@H](CCCCN)C(=O)N[C@@H](CC(C)C)C(=O)O)[C@@H](C)CC) [PKCζi]”?
lung compliance, PKC-ζi instilled post injury ([1]; instillation 6 hours after bleomycin): prevented the decrease in lung compliance; lung compliance, PKC-ζi instilled post injury ([1]; instillation 24 hours after bleomycin): no protective effect; lung compliance [1]: partial but statistically significant prevention in the lung compliance decrease compared to bleomycin alone group; also recorded: preserves lung compliance compare to bleomycin; lung compliance ([1]; listed as PKC-ζi): partially preserve lung compliance compared to control; total amount of SPC in BALF (Western blot) ([2]; Example 1): did not prevent a reduction in SPC; total SPC in whole lungs (Western blot) ([2]; week 1, Example 2): did not prevent the reduction in SPC caused by bleomycin injury; also recorded: does not prevent total SPC decrease in the lungs; collagen lung deposition by Masson's staining ([3]; FIG. 4C, printed as week 3): decreased collagen lung deposition by masson's staining at week 3 compared to bleomycin group; hydroxyproline content, PKCζi only during the first week ([3]; measured at week 6): increase hydroxyproline content similar to Bleomycin alone group at week 6; histological lung collagen deposition ([3]; three weeks after bleomycin, Example 1): histological evidence of lung collagen deposition; lung hydroxyproline concentration ([3]; week 3 post injury): no difference in active TGF β and hydroxyproline concentrations compared to bleomycin group; also recorded: does not decrease hydroxyproline concentration; lung hydroxyproline concentration ([3]; week 3 post injury, listed as PKC-ζi): high concentrations of hydroxyproline; lung fibrosis / lung injury resolution, biochemical and histological evidence ([3]; week 6): demonstrated lung injury resolution in the PKCζi treated group; lung fibrosis / lung injury resolution, biochemical and histological evidence ([3]; week 6, listed as PKC-ζi): total resolution of lung fibrosis in the PKC-ζi treated group; lung hydroxyproline concentration ([3]; week 6, continuous PKCζi treatment): decreased hydroxyproline concentration at week 6 compare to bleomycin group; lung injury on μCT [4]: confirmed lung injury resolution; also recorded: complete resolution in the PKCζi group at week 6; lung injury on μCT ([4]; listed as PKC-ζi): confirmed lung injury resolution

Source: patent US10328114B2, “Lung injury repair compositions and methods” (University of Iowa Research Foundation, priority 2015, dated 2019)
